# Counter-ions that a name gives are not always drawn.
# Legend:
# [1] = In situ solubility of acid addition salts of BL-5111 in water; type: physicochemical; conditions: for Solubility 50° C. / Solubility 25° C.: 10 mg. BL-5111 free base in 0.3 ml. water with excess of the acid; for Solubility 25° C.: room temperature (about 25° C.)
# [2] = Comparative water solubility of 1:1 and 1:1.3 levulinate salts; type: physicochemical
# [3] = Comparative water stability of 1:1 and 1:1.3 levulinate salts; type: physicochemical
# [4] = Comparative quantitative solubility study in water and methylene chloride; type: physicochemical; conditions: 25° C.; for Solubility in Methylene Chloride: measure of lipid solubility
# Source text: In comparison to the hydrochloride salt of BL-5111, the 1:1.3 levulinate salt form has substantially greater water and lipid solubility. TABLE 3 below sets forth results of a comparative quantitative study of the BL-5111 hydrochloride and the 1:1.3 levulinate salt in water and methylene chloride. Solubility in methylene chloride is a measure of lipid solubility which plays an important role in any distribution in the body.
# [5] = Plasma levels in dogs after oral administration by gavage; type: in vivo; conditions: equivalent to 10 mg. BL-5111 free base, fasted beagle dogs
# Description: With respect to oral administration, the BL-5111 levulinate provides improved absorption compared to the hydrochloride salt as illustrated by enhanced plasma levels in dogs. Thus, BL-5111 levulinate (equivalent to 10 mg. of BL-5111 free base) was orally administered by gavage as a solution in 5 ml. of water followed by 20 ml. of water to beagle dogs which had been fasted 12 to 15 hours. The BL-5111 hydrochloride (equivalent to 10 mg. of the BL-5111 free base) was likewise administered with the exception that a suspension was employed due to tendency of the hydrochloride to dissolve at a rate appreciably slower than the levulinate. […] Moreover, maximum plasma level following administration was approximately three-fold greater for the levulinate than the hydrochloride while the extent of absorption of BL-5111 levulinate (determined by comparison of the area under plasma concentration-time curves taken over a period of 24 hr.) was more than double that of BL-5111 hydrochloride.
SMILES,Solubility 50° C. [1],Solubility 25° C. [1],other results
COc1cc2nc(N3CCN(C(=O)c4nnc(SC)o4)CC3)nc(N)c2cc1OC [nitric],- (insoluble (-)),- (insoluble (-)),
COc1cc2nc(N3CCN(C(=O)c4nnc(SC)o4)CC3)nc(N)c2cc1OC [sulfuric],- (insoluble (-)),- (insoluble (-)),
COc1cc2nc(N3CCN(C(=O)c4nnc(SC)o4)CC3)nc(N)c2cc1OC [phosphoric],- (insoluble (-)),- (insoluble (-)),
COc1cc2nc(N3CCN(C(=O)c4nnc(SC)o4)CC3)nc(N)c2cc1OC [formic],+ (soluble (+)),± (questionable (±)),
COc1cc2nc(N3CCN(C(=O)c4nnc(SC)o4)CC3)nc(N)c2cc1OC [hydrobromic],- (insoluble (-)),- (insoluble (-)),
COc1cc2nc(N3CCN(C(=O)c4nnc(SC)o4)CC3)nc(N)c2cc1OC [acetic],+ (soluble (+)),+ (soluble (+)),"Solubility ([1]; room temperature, 10 mg./0.3 ml. water, read-out: Solubility sufficient to provide a solution): ≥ 33 mg/mL"
"COc1cc2nc(N3CCN(C(=O)c4nnc(SC)o4)CC3)nc(N)c2cc1OC [1:1, levulinic acid salt of 4-amino-6,7-dimethoxy-2-[4-(5-methylthio-1,3,4-oxadiazole-2-carbonyl)-piperazin-1-yl]quinazoline]",,,"Solubility ([2]; 2.5 mg./ml., at 50° C.): soluble; Solubility ([2]; 10 mg./ml., at 50° C.): soluble; Solubility ([2]; 50 mg./ml., at 80° C.): insoluble; Solubility and stability relative to the 1:1.3 levulinate ([3]; water, Table 2 data): relatively less soluble and stable"
COc1cc2nc(N3CCN(C(=O)c4nnc(SC)o4)CC3)nc(N)c2cc1OC [hydrochloride],,,"Solubility 50° C. ([1]; listed as hydrochloric): - (insoluble (-)); Solubility 25° C. ([1]; listed as hydrochloric): - (insoluble (-)); Solubility in Water [4]: 4.42 mg/mL; Solubility in Methylene Chloride [4]: < 1 mg/mL; Time at which maximum plasma levels reached ([5]; levulinate as solution, hydrochloride as suspension, listed as BL-5111 hydrochloride): 2 h"
COc1cc2nc(N3CCN(C(=O)c4nnc(SC)o4)CC3)nc(N)c2cc1OC [fumaric],- (insoluble (-)),- (insoluble (-)),
"COc1cc2nc(N3CCN(C(=O)c4nnc(SC)o4)CC3)nc(N)c2cc1OC [1:1.3 levulinate, 4-AMINO-6,7-DIMETHOXY-2-[4-(5-METHYLTHIO-1,3,4-OXADIAZOLE-2-CARBONYL)-PIPERAZIN-1-YL]QUINAZOLINE LEVULINATE]",,,"Solubility ([2]; 10 mg./ml., room temperature): soluble; Solubility ([2]; 50 mg./ml., at 50° C.): soluble; Solubility in Water [4]: 38.0 mg/mL; Water solubility, times that of the hydrochloride salt [4]: about 8.6 times; Solubility in Methylene Chloride [4]: > 100 mg/mL; Stability of aqueous solution ([3]; room temperature): stable; Stability ([3]; water, 10 mg./ml., room temperature, listed as 1:1.3): stable; Stability ([3]; water, 50 mg./ml., room temperature): stable; Maximum plasma level relative to the hydrochloride [5]: approximately three-fold; Extent of absorption (area under plasma concentration-time curves) relative to BL-5111 hydrochloride ([5]; over 24 hr.): more than double"
COc1cc2nc(N3CCN(C(=O)c4nnc(SC)o4)CC3)nc(N)c2cc1OC [succinic],+ (soluble (+)),- (insoluble (-)),
COc1cc2nc(N3CCN(C(=O)c4nnc(SC)o4)CC3)nc(N)c2cc1OC [isethionic],- (insoluble (-)),- (insoluble (-)),
COc1cc2nc(N3CCN(C(=O)c4nnc(SC)o4)CC3)nc(N)c2cc1OC [methanesulfonic],- (insoluble (-)),- (insoluble (-)),

# Source: patent US4161595A, “Levulinic acid salt” (Bristol-Myers Company, priority 1978, dated 1979)
